{"source": "patent US7910344B2", "about": "“Proteins having tyrosinase activity” (Valtion teknillinen tutkimuskeskus, priority 2005, dated 2011)", "key": {"[1]": {"system": "Agaricus bisporus crude tyrosinase (Sigma)", "assay": "Substrate specificity by oxygen consumption measurements, commercial Agaricus tyrosinase", "type": "biochemical", "conditions": "for Agaricus tyr Relative oxygen consumption (%): mono-phenols", "method": "(§1) pH optimum for the tyrosinase was studied by oxygen consumption measurements. Measurements were performed with a single channel oxygen meter (Precision sensing GmbH, Germany) containing fiber-optic oxygen minisensors with measurement range 0-100% oxygen. L-Dopa in 15 mM concentration, dissolved in 0.1 M sodium phosphate buffer, pH 7.0, was used as substrate. Reactions were carried out with 1.8 ml substrate solution and with 4.3 μg of the purified T. reesei tyrosinase. Three different buffers were used according to their buffer capacity. McIlvaine buffer was used within a pH range of 2-7, Tris-HCl buffer (50 mM) within a pH range 7-9 and borate buffer (12.5 mM) within a pH range of 8-9.5. […] In the measurements with Tris-HCl buffer in pH 8, 8.5 and 9.0 also a blank test without enzyme addition was performed to correct the effect of auto-oxidation in results.\n(§2) Substrate specificity of the tyrosinase on various selected substrates was studied by oxygen consumption measurements. The concentration of substrates was 2.5 mM, and the compounds were dissolved in 0.1 M sodium phosphate buffer, pH 7.0. Reactions were carried out with 1.8 ml of 2.5 mM substrate solutions and with 24 μg of the purified TYR2. As a reference the substrate specificity assays were also determined for the commercial Agaricus bisporus crude tyrosinase (Sigma). Respectively, 50 μg of said mushroom tyrosinase was used in the assays. Activity of TYR2 and Agaricus tyrosinase were analyzed on selected model peptides containing tyrosine in different positions in the peptide chain (Table 5). Oxidation of L-/DL-D-Dopa and -tyrosine by TYR2 and Agaricus tyrosinase was also measured (Table 6)."}, "TYR2 [2]": {"system": "TYR2", "assay": "Substrate specificity by oxygen consumption measurements, purified TYR2", "type": "biochemical, Trichoderma reesei", "method": "as §1, §2"}, "Trichoderma reesei": {"system": "Trichoderma reesei", "assay": "Plate test screening for tyrosinase activity from T. reesei", "type": "cell-based", "conditions": "T. reesei on Malt Extract agar with indicator", "method": "The indicators for tyrosinase activity screening were selected according to literature. L-Tyrosine, p-cresol, p-coumaric acid, tyramine, 3-hydroxy antranilic acid, and catechin were used in concentrations shown in Table 1. Trichoderma reesei was grown on Malt Extract agar containing the selected indicators (Table 1) (Difco) at 37° C. for 48 days. Possible colour changes on the plates were observed visually."}, "TYR2 [3]": {"system": "TYR2", "assay": "Tyrosinase activity assay monitoring dopachrome formation at 475 nm", "type": "biochemical, Trichoderma reesei", "protocol": "The activity was also measured on L-tyrosine (Sigma) in concentration of 2 mM. Both activity assays were carried out in 0.1 M sodium phosphate buffer (pH 7.0) at 25° C. monitoring dopachrome formation at 475 nm. The molar extinction coefficient ε 3400 M^−1 cm^−1 (Robb, 1984) was used. Measurements were carried out by using a two-beam spectrophotometer (Lambda 20, Perkin-Elmer, Über-lingen, Germany). Activities were expressed as nanokatals.\nThe result was also confirmed by determining the enzyme activity on L-Dopa and L-tyrosine by following oxygen consumption in enzymatic reaction. […] The effect of SDS (Sigma) on tyrosinase activity was measured using different concentrations of SDS in the activity assay."}, "[4]": {"conditions": "L-/DL-/D-tyrosine, L-tyrosine = 100"}, "[5]": {"conditions": "in relation to L-tyrosine, 2.5 mM substrate, pH 7.0, 50 μg mushroom tyrosinase"}, "[6]": {"conditions": "mono-phenols, in relation to L-tyrosine, 2.5 mM substrate, pH 7.0, 24 μg TYR2"}, "[7]": {"conditions": "di- and tri-phenolic compounds, in relation to L-Dopa, 2.5 mM substrate, pH 7.0, 50 μg mushroom tyrosinase"}, "[8]": {"conditions": "di- and tri-phenolic compounds, in relation to L-Dopa, 2.5 mM substrate, pH 7.0, 24 μg TYR2"}, "[9]": {"conditions": "di-peptides, in relation to L-tyrosine, 2.5 mM substrate, pH 7.0"}}, "note": "Where two headings read alike, the source gives them in different places."}
{"compound": "NC(Cc1ccc(O)c(O)c1)C(=O)O", "note": "(racemic) [DL-dopa]", "values": [{"measurement": "Agaricus tyrosinase Relative oxygen consumption (%)", "setting": "[1]; L-/DL-/D-dopa, L-dopa = 100", "value": 118, "unit": "%"}, {"measurement": "TYR2 Relative oxygen consumption (%)", "setting": "TYR2 [2]; L-/DL-/D-dopa, L-dopa = 100", "value": 46, "unit": "%"}]}
{"compound": "NC(Cc1ccc(O)cc1)C(=O)O", "note": "(racemic) [DL-tyrosine]", "values": [{"measurement": "Agaricus tyrosinase Relative oxygen consumption (%)", "setting": "[1]", "value": 102, "unit": "%"}, {"measurement": "TYR2 Relative oxygen consumption (%)", "setting": "TYR2 [2]; [4]", "value": 40, "unit": "%"}]}
{"compound": "Nc1c(O)cccc1C(=O)O", "note": "[3-Hydroxyanthranilic acid]", "values": [{"measurement": "Agaricus tyr Relative oxygen consumption (%)", "setting": "[1]; [5]", "value": 0, "unit": "%"}, {"measurement": "TYR2 Relative oxygen consumption (%)", "setting": "TYR2 [2]; [6]", "value": 0, "unit": "%"}, {"measurement": "Reaction with indicator in plate test", "setting": "Trichoderma reesei", "value": "clear positive reactions"}]}
{"compound": "Nc1ccc(O)cc1", "note": "[4-Aminophenol]", "values": [{"measurement": "Agaricus tyr Relative oxygen consumption (%)", "setting": "[1]; [5]", "value": 9, "unit": "%"}, {"measurement": "TYR2 Relative oxygen consumption (%)", "setting": "TYR2 [2]; [6]", "value": 8, "unit": "%"}]}
{"compound": "Oc1ccc(S)cc1", "note": "[4-Mercaptophenol]", "values": [{"measurement": "Agaricus tyr Relative oxygen consumption (%)", "setting": "[1]; [5]", "value": 0, "unit": "%"}, {"measurement": "TYR2 Relative oxygen consumption (%)", "setting": "TYR2 [2]; [6]", "value": 0, "unit": "%"}]}
{"compound": "Oc1cc(O)c2c(c1)O[C@H](c1ccc(O)c(O)c1)[C@@H](O)C2", "note": "[(+)-Catechin hydrate]", "values": [{"measurement": "Agaricus tyrosinase Relative oxygen consumption (%)", "setting": "[1]; [7]", "value": 282, "unit": "%"}, {"measurement": "TYR2 Relative oxygen consumption (%)", "setting": "TYR2 [2]; [8]", "value": 220, "unit": "%"}]}
{"compound": "Oc1cc(O)c2c(c1)O[C@H](c1ccc(O)c(O)c1)[C@H](O)C2", "note": "[(−)-Epicatechin]", "values": [{"measurement": "Agaricus tyrosinase Relative oxygen consumption (%)", "setting": "[1]; [7]", "value": 286, "unit": "%"}, {"measurement": "TYR2 Relative oxygen consumption (%)", "setting": "TYR2 [2]; [8]", "value": 106, "unit": "%"}]}
{"compound": "N[C@H](Cc1ccc(O)c(O)c1)C(=O)O", "note": "[D-dopa]", "values": [{"measurement": "Agaricus tyrosinase Relative oxygen consumption (%)", "setting": "[1]; L-/DL-/D-dopa, L-dopa = 100", "value": 106, "unit": "%"}, {"measurement": "TYR2 Relative oxygen consumption (%)", "setting": "TYR2 [2]; L-/DL-/D-dopa, L-dopa = 100", "value": 18, "unit": "%"}]}
{"compound": "N[C@H](Cc1ccc(O)cc1)C(=O)O", "note": "[D-tyrosine]", "values": [{"measurement": "Agaricus tyrosinase Relative oxygen consumption (%)", "setting": "[1]", "value": 61, "unit": "%"}, {"measurement": "TYR2 Relative oxygen consumption (%)", "setting": "TYR2 [2]; [4]", "value": 7, "unit": "%"}]}
{"compound": "COc1cc(/C=C/C(=O)O)ccc1O", "note": "[Ferulic acid]", "values": [{"measurement": "Agaricus tyr Relative oxygen consumption (%)", "setting": "[1]; [5]", "value": 0, "unit": "%"}, {"measurement": "TYR2 Relative oxygen consumption (%)", "setting": "TYR2 [2]; [6]", "value": 0, "unit": "%"}]}
{"compound": "N[C@@H](Cc1ccc(O)c(O)c1)C(=O)O", "note": "[L-Dopa, L-3,4 dihydroxyphenylalanine]", "values": [{"measurement": "Agaricus tyrosinase Relative oxygen consumption (%)", "setting": "[1]; L-/DL-/D-dopa, L-dopa = 100", "value": 100, "unit": "%"}, {"measurement": "Agaricus tyrosinase Relative oxygen consumption (%)", "setting": "[1]; [7]", "value": 100, "unit": "%"}, {"measurement": "Activity on L-Dopa compared with L-tyrosine", "setting": "TYR2 [3]; 15 mM L-Dopa, 2 mM L-tyrosine, pH 7.0, 25° C.", "value": "approximately six times higher activity values than L-tyrosine"}, {"measurement": "TYR2 Relative oxygen consumption (%)", "setting": "TYR2 [2]; L-/DL-/D-dopa, L-dopa = 100", "value": 100, "unit": "%"}, {"measurement": "TYR2 Relative oxygen consumption (%)", "setting": "TYR2 [2]; [8]", "value": 100, "unit": "%"}]}
{"compound": "N[C@@H](Cc1ccc(O)cc1)C(=O)O", "note": "[L-Tyrosine]", "values": [{"measurement": "Agaricus tyrosinase Relative oxygen consumption (%)", "setting": "[1]", "value": 100, "unit": "%"}, {"measurement": "Agaricus tyrosinase Relative oxygen consumption (%)", "setting": "[1]; [9]", "value": 100, "unit": "%"}, {"measurement": "Agaricus tyr Relative oxygen consumption (%)", "setting": "[1]; [5]", "value": 100, "unit": "%"}, {"measurement": "TYR2 Relative oxygen consumption (%)", "setting": "TYR2 [2]; [4]", "value": 100, "unit": "%"}, {"measurement": "TYR2 Relative oxygen consumption (%)", "setting": "TYR2 [2]; [9]", "value": 100, "unit": "%"}, {"measurement": "TYR2 Relative oxygen consumption (%)", "setting": "TYR2 [2]; [6]", "value": 100, "unit": "%"}, {"measurement": "Reaction with indicator in plate test", "setting": "Trichoderma reesei", "value": "clear positive reactions"}]}
{"compound": "Oc1ccccc1", "note": "[Phenol]", "values": [{"measurement": "Agaricus tyr Relative oxygen consumption (%)", "setting": "[1]; [5]", "value": 85, "unit": "%"}, {"measurement": "TYR2 Relative oxygen consumption (%)", "setting": "TYR2 [2]; [6]", "value": 121, "unit": "%"}]}
{"compound": "Oc1ccccc1O", "note": "[Pyrocatechol]", "values": [{"measurement": "Agaricus tyrosinase Relative oxygen consumption (%)", "setting": "[1]; [7]", "value": 328, "unit": "%"}, {"measurement": "TYR2 Relative oxygen consumption (%)", "setting": "TYR2 [2]; [8]", "value": 88, "unit": "%"}]}
{"compound": "Oc1cccc(O)c1O", "note": "[Pyrogallol]", "values": [{"measurement": "Agaricus tyrosinase Relative oxygen consumption (%)", "setting": "[1]; [7]", "value": 248, "unit": "%"}, {"measurement": "TYR2 Relative oxygen consumption (%)", "setting": "TYR2 [2]; [8]", "value": 55, "unit": "%"}]}
{"compound": "CCCCCCCCCCCCOS(=O)(=O)[O-].[Na+]", "note": "[SDS, sodium dodecyl sulfate]", "values": [{"measurement": "Tyrosinase activity left in presence of SDS", "setting": "TYR2 [3]; 0.5 mM SDS in the activity assay", "value": 50, "unit": "%"}]}
{"compound": "NCCc1ccc(O)cc1", "note": "[Tyramine]", "values": [{"measurement": "Agaricus tyr Relative oxygen consumption (%)", "setting": "[1]; [5]", "value": 85, "unit": "%"}, {"measurement": "TYR2 Relative oxygen consumption (%)", "setting": "TYR2 [2]; [6]", "value": 42, "unit": "%"}, {"measurement": "Reaction with indicator in plate test", "setting": "Trichoderma reesei", "value": "clear positive reactions"}]}
{"compound": "O=C(O)C=Cc1ccccc1O", "note": "[o-Coumaric acid]", "values": [{"measurement": "Agaricus tyr Relative oxygen consumption (%)", "setting": "[1]; [5]", "value": 0, "unit": "%"}, {"measurement": "TYR2 Relative oxygen consumption (%)", "setting": "TYR2 [2]; [6]", "value": 0, "unit": "%"}]}
{"compound": "O=C(O)C=Cc1ccc(O)cc1", "note": "[p-Coumaric acid]", "values": [{"measurement": "Agaricus tyr Relative oxygen consumption (%)", "setting": "[1]; [5]", "value": 0, "unit": "%"}, {"measurement": "TYR2 Relative oxygen consumption (%)", "setting": "TYR2 [2]; [6]", "value": 390, "unit": "%"}]}
{"compound": "Cc1ccc(O)cc1", "note": "[p-Cresol]", "values": [{"measurement": "Agaricus tyr Relative oxygen consumption (%)", "setting": "[1]; [5]", "value": 104, "unit": "%"}, {"measurement": "TYR2 Relative oxygen consumption (%)", "setting": "TYR2 [2]; [6]", "value": 172, "unit": "%"}]}
{"compound": "OCCc1ccc(O)cc1", "note": "[p-Tyrosol]", "values": [{"measurement": "Agaricus tyr Relative oxygen consumption (%)", "setting": "[1]; [5]", "value": 157, "unit": "%"}, {"measurement": "TYR2 Relative oxygen consumption (%)", "setting": "TYR2 [2]; [6]", "value": 346, "unit": "%"}]}
{"compound": "Catechin", "values": [{"measurement": "Reaction with indicator in plate test", "setting": "Trichoderma reesei", "value": "clear positive reactions"}]}
